O=[N+]([O-])O.c1ccc2c(CC3=NCCN3)cccc2c1 gave a solubility (mole fraction) (in 2-methoxyethanol, 278.15 K) of 0.0347, a solubility (mole fraction) (in 2-methoxyethanol, 283.15 K) of 0.04 and a solubility (mole fraction) (in 2-methoxyethanol, 288.15 K) of 0.046. The solubility (mole fraction) (in 2-methoxyethanol, 293.15 K) was 0.0515, the solubility (mole fraction) (in 2-methoxyethanol, 298.15 K) was 0.0601 and the solubility (mole fraction) (in 2-methoxyethanol, 303.15 K) was 0.0662. The solubility (mole fraction) (in 2-methoxyethanol, 308.15 K) was 0.0769, the solubility (mole fraction) (in 2-methoxyethanol, 313.15 K) was 0.0883 and the solubility (mole fraction) (in 2-methoxyethanol, 318.15 K) was 0.101. The solubility (mole fraction) (in 2-methoxyethanol, 323.15 K) was 0.115, the solubility (mole fraction) (in ethylene glycol, 278.15 K) was 0.0168 and the solubility (mole fraction) (in ethylene glycol, 283.15 K) was 0.0212. It also gave a solubility (mole fraction) (in ethylene glycol, 288.15 K) of 0.0257, a solubility (mole fraction) (in ethylene glycol, 293.15 K) of 0.03 and a solubility (mole fraction) (in ethylene glycol, 298.15 K) of 0.0359. The solubility (mole fraction) (in ethylene glycol, 303.15 K) was 0.0428, the solubility (mole fraction) (in ethylene glycol, 308.15 K) was 0.0506 and the solubility (mole fraction) (in ethylene glycol, 313.15 K) was 0.061. For the same compound, the solubility (mole fraction) (in ethylene glycol, 318.15 K) was 0.0704, the solubility (mole fraction) (in ethylene glycol, 323.15 K) was 0.0823 and the solubility (mole fraction) (in isopropanol, 278.15 K) was 0.000577. The solubility (mole fraction) (in isopropanol, 283.15 K) was 0.000763, the solubility (mole fraction) (in isopropanol, 288.15 K) was 0.00101 and the solubility (mole fraction) (in isopropanol, 293.15 K) was 0.00132. It also gave a solubility (mole fraction) (in isopropanol, 298.15 K) of 0.00161, a solubility (mole fraction) (in isopropanol, 303.15 K) of 0.00206 and a solubility (mole fraction) (in isopropanol, 308.15 K) of 0.00258. The solubility (mole fraction) (in isopropanol, 313.15 K) was 0.00327, the solubility (mole fraction) (in isopropanol, 318.15 K) was 0.00389 and the solubility (mole fraction) (in isopropanol, 323.15 K) was 0.00489. For the same compound, the solubility (mole fraction) (in methanol, 278.15 K) was 0.0104, the solubility (mole fraction) (in methanol, 283.15 K) was 0.013 and the solubility (mole fraction) (in methanol, 288.15 K) was 0.0155. For the same compound, the solubility (mole fraction) (in methanol, 293.15 K) was 0.0193, the solubility (mole fraction) (in methanol, 298.15 K) was 0.0234 and the solubility (mole fraction) (in methanol, 303.15 K) was 0.029. It also gave a solubility (mole fraction) (in methanol, 308.15 K) of 0.0368, a solubility (mole fraction) (in methanol, 313.15 K) of 0.0473 and a solubility (mole fraction) (in methanol, 318.15 K) of 0.057. The solubility (mole fraction) (in methanol, 323.15 K) was 0.0705.
